Earlier results, collected in patent US20120121700A1, “PHARMACEUTICAL FORMULATIONS COMPRISING VALGANCICLOVIR” (priority 2010, published 2012).

Details: oral administration; background statement taken from U.S. Pat. No. 6,083,953

Compound	bioavailability when administered orally
CC(C)[C@H](N)C(=O)OCC(CO)OCn1cnc2c(=O)[nH]c(N)nc21.Cl (stereo partly drawn) [Valganciclovir hydrochloride, L-valine, 2-[(2-amino-1,6-dihydro-6-oxo-9H-purin-9-yl)methoxy]-3-hydroxypropyl ester, monohydrochloride]	better bioavailability than ganciclovir given orally
Nc1nc(O)c2ncn(COC(CO)CO)c2n1 [gancilcovir, ganciclovir]	poor
